By IC50 is commonly meant the point on the concentration scale where inhibition reaches its midpoint. Read a high IC50 as weaker potency in that assay. Broadly, the solubility is the dissolved amount per volume that the medium holds. Lower therefore signals little dissolved substance. The term bioavailability denotes dose-corrected exposure relative to a reference, in per cent. A lower bioavailability goes with little systemic uptake.

The record followed here is patent publication US9212130B2, “Heterocyclic derivative and pharmaceutical composition comprising the same” (SHIONOGI & CO., LTD., priority 2010, dated 2015).

Data set [1] has as its target human P2X3 receptor (Homo sapiens (Human), UniProt P56373). Kind of data set: Evaluation of human P2X3 receptor inhibitory activity (ATP-induced Fluo-3 fluorescence, FDSS 3000). It counts as cell-based. The settings on record: C6BU-1 cell transfected with human P2X3 receptor gene. The essentials:
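Human P2X3 inhibition read as ATP-evoked Fluo-3 calcium fluorescence; compound preincubated, then 50 nM ATP solution (concentration as dispensed) added and fluorescence followed 3 min. Response taken as peak-to-baseline fluorescence ratio per well; IC50 derived from concentration–response.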

Data set [2] has as its target CYP2C19 (Homo sapiens (Human), UniProt P33261). Kind of data set: CYP inhibition test, mephenyloin 4'-hydroxylation. It counts as in vitro ADME. The conditions noted are these: pooled human hepatic microsome; 50 μmol/L S-mephenitoin; given as 'five kinds'. On the procedure: (§1) Using commercially available pooled human hepatic microsome, and employing, as markers, 7-ethoxyresorufin O-deethylation (CYP1A2), tolbutamide methyl-hydroxylation (CYP2C9), mephenyloin 4′-hydroxylation (CYP2C19), dextromethorphan O-demethylation (CYP2D6), and terfenedine hydroxylation as typical substrate metabolism reactions of human main five ([…] enzyme forms (CYP1A2, 2C9, 2C19, 2D6, 3A4), an inhibitory degree of each metabolite production amount by a test compound was assessed.
(§2) The reaction conditions were as follows: substrate, 0.5 μmol/L ethoxyresorufin (CYP1A2), 100 μmol/L tolbutamide (CYP2C9), 50 μmol/L S-mephenitoin (CYP2C19), 5 μmol/L dextromethorphan (CYP2D6), 1 μmol/L terfenedine (CYP3A4); reaction time, 15 minutes; reaction temperature, 37° C.; enzyme, pooled human hepatic microsome 0.2 mg protein/mL; test drug concentration, 1.0. 5.0, 10, 20 μmol/L (four points).
(§3) Each five kinds of substrates, human hepatic microsome, or a test drug in 50 mmol/L Hepes buffer as a reaction solution was added to a 96-well plate at the composition as described above. NADPH, as a cofactor was added to initiate metabolism reactions as markers and, after the incubation at 37° C. for 15 minutes, a methanol/acetonitrile=1/1 (v/v) solution was added to stop the reaction. After the centrifugation at 3000 rpm for 15 minutes, resorufin (CYP1A2 metabolite) in the supernatant was quantified by a fluorescent multilabel counter and tributamide hydroxide (CYP2CP metabolite), mephenyloin 4′ hydroxide (CYP2C19 metabolite), […], and terfenadine alcohol (CYP3A4 metabolite) were quantified by LC/MS/MS.
(§4) Addition of only DMSO being a solvent dissolving a drug to a reaction system was adopted as a control (100%), remaining activity (%) was calculated at each concentration of a test drug added as the solution and IC50 was calculated by reverse presumption by a logistic model using a concentration and an inhibition rate.

Data set [3] concerns the target CYP3A4 (Homo sapiens (Human), UniProt P08684). In words: CYP inhibition test, terfenedine hydroxylation. The data set is classed as in vitro ADME. The conditions noted are these: pooled human hepatic microsome; 1 μmol/L terfenedine; given as 'five kinds'. On the procedure: as §1, §2, §3, §4
Data set [4] is described as follows: Solubility test. It counts as physicochemical. The conditions noted are these: artificial intestinal juice (phosphate buffer) with 1% DMSO, 25 °C, other biorelevant, kinetic from dmso stock, artificial intestinal juice in pH 8.8, 25 degrees Celsius for 16 hours. On the procedure:
The solubility of a compound was determined under a condition in which 1% DMSO was added. 10 mmol/L compound solution was prepared using DMSO, and then 6 μL of the compound solution was added to 594 μL of artificial intestinal juice in […] (to 250 mL of 0.2 mol/L potassium dihydrogen phosphate reagent solution was added 118 mL of 0.2 mol/L NaOH reagent solution and water to provide a final volume of 1000 mL). After standing at 25 degrees Celsius for 16 hours, the mixed solution was filtrated with suction. The filtrate was diluted twice with methanol/water (1/1) and then a concentration in the filtration was measured with HPLC or LC/MS/MS by the absolute calibration method.

Data set [5] is described as follows: Bioavailability (BA) test. The settings on record: plasma; Mice or SD rats; oral 0.3 to 30 mg/kg vs intravenous 0.5 to 10 mg/kg; from AUCs. The data set is classed as in vivo. The protocol:
Materials and Methods for Experiment of BA
• (1) Animals: Mice or SD rats were used • (2) Breeding conditions: Mice or SD rats were allowed to freely take solid food and sterilized tap water. • (3) Dose and grouping: orally or intravenously administered at a predetermined dose; grouping was as follows (Dose depends on the compound) Oral administration: 0.3 to 30 mg/kg (n=2 to 3) Intravenous administration: 0.5 to 10 mg/kg (n=2 to 3) • (4) Preparation of dosing solution: for oral administration, in a solution or a suspension state; for intravenous administration, in a solubilized state • (5) Administration method: in oral administration, forcedly administer into ventriculus with oral probe; in intravenous administration, administer from caudal vein with a needle-equipped syringe • (6) Evaluation items: blood was collected over time, and the plasma concentration of drug was measured by LC/MS/MS • (7) Statistical analysis: regarding the transition of the plasma concentration of the present compound, the area under the plasma concentration-time curve (AUC) was calculated by non-linear least squares program WinNonlin (Registered trade name), and the bioavailability (BA) was calculated from the AUCs of the oral administration group and intravenous administration group

Chain of CYP2C19 (P33261 whole entry): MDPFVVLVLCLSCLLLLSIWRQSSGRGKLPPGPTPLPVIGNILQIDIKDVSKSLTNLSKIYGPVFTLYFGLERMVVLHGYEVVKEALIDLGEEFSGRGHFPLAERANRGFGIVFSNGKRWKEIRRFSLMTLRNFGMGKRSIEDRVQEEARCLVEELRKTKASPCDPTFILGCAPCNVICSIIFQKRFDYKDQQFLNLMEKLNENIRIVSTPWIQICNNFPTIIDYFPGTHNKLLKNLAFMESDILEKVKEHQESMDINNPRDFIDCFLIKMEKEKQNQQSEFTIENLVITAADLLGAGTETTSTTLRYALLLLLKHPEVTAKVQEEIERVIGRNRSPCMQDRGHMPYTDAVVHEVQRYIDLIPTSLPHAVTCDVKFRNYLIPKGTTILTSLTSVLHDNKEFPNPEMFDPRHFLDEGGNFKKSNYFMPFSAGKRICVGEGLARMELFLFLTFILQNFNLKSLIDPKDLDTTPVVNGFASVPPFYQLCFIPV
Chain of human P2X3 receptor (P56373 whole entry): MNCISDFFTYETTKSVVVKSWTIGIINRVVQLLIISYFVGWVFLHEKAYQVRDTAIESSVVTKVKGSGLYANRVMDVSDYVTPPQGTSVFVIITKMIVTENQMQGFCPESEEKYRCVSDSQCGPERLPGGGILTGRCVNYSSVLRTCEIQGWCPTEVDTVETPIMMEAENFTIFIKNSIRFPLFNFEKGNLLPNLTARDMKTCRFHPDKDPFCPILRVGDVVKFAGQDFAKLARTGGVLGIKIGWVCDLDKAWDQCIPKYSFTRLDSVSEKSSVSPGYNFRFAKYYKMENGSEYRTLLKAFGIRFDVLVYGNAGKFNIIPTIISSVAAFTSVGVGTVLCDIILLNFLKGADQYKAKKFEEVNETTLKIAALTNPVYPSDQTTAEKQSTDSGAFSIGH
Chain of CYP3A4 (P08684 whole entry): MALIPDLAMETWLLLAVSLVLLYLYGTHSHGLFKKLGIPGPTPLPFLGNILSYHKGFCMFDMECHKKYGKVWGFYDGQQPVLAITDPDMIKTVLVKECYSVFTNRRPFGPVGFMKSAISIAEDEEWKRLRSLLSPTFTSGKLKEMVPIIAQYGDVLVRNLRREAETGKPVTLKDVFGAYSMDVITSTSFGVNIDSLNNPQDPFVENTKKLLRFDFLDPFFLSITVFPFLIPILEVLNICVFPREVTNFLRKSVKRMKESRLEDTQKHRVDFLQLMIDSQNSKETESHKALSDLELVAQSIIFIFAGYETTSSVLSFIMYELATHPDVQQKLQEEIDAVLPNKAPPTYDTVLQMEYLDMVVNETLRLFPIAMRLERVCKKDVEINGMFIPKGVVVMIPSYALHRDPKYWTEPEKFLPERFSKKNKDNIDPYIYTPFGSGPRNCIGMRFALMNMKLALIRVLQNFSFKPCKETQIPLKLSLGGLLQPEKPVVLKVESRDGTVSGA

Take `CC(C)Oc1ccc(Nc2cc(=O)n(C[C@H](C)C(=O)O)c(=O)n2Cc2ccc(Cl)cc2)cc1Cl` [I-100]: the IC50 in data set [1] was 0.009 µM; in data set [2], greater than 20 µM; in data set [3] it was greater than 20 µM. This compound also gave a solubility at 16 h in data set [4] greater than 50 µM. In data set [5], this compound showed a bioavailability of 29.2%.
